The values that follow come from patent US8889881B2, “Compound having skin-whitening, anti-oxidizing and PPAR activities and medical use therefor” (Pusan National University Industry —University Cooperation …, priority 2011, dated 2014).

Molecules are shown by their SMILES.

Data set [1] has as its system YPEN-1 cells (rat prostatic endothelial cell line). Briefly: In vitro ROS scavenging activity assay (DCFDA). Type of data set: cell-based. To be noted: cells pre-treated with 50 μM SIN-1 for 1 hour; DCFDA fluorescence; positive control trolox; FIGS. 1 and 2. On the procedure:
YPEN-1 cells (rat prostatic endothelial cell line) was obtained from American type culture collection (ATCC, Manassas, Va., USA), and the cells were cultured by using a dulbecco's modified eagle medium (DMEM, Nissui, Tokyo, Japan) containing 2 mM L-glutamine, […], 2.5 mg/L amphotericin B, and 5% inactivated fetal bovine serum (FBS). Also, the cells were maintained at a temperature of 37° C. in a humid atmosphere-like condition containing 5% CO2 and 95% air. […] The cells were sub-cultured in 100 mm plastic flask (Corning Co., New York, USA) every two days to maintain the cell line.
2′,7′-dichlorodihydrofluorescein diacetate (DCFDA) assay method according to a conventionally known method (Chem Res Toxicol. 5: 227-231, 1992) was used. In detail, 12.5 mM DCFDA dissolved in 99.9% ethanol and 600 U/ml esterase dissolved in tertiary distilled water were stored as a stock solution at a temperature of −20° C., and a 2′,7′-dichlorodihydrofluorescein (DCFH) solution prepared by mixing 10 mM DCFDA and 6 U/ml esterase was cultured at a temperature of 22° C. for 20 minutes, and then, refrigerated in a dark place before use. […] Vascular endothelial cells that were pre-treated with 50 μM 3-morpholinosydnonimine hydrochloride (SIN-1) for 1 hour were used as a reactive oxygen generation source.

Another data set concerns the target T1, PPAR gamma-LBD (Homo sapiens, UniProt P37231).
T1 sequence (P37231 238-503 limits assumed): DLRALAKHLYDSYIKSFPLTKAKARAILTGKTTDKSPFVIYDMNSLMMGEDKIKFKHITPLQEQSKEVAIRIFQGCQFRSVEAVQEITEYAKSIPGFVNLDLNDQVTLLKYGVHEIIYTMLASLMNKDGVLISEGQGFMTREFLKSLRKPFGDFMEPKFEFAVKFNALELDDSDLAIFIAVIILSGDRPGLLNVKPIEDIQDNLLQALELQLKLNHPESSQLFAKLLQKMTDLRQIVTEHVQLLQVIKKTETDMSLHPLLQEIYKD
The data set can be described thus: PPAR assay, PPARγ. The data set is classed as binding. To be noted: sample final concentration 100 μM; positive control rosiglitazone; FIGS. 7 and 8.

The target of a further data set is T2, PPAR alpha-LBD (Homo sapiens, UniProt Q07869).
T2 sequence (Q07869 239-466 limits assumed): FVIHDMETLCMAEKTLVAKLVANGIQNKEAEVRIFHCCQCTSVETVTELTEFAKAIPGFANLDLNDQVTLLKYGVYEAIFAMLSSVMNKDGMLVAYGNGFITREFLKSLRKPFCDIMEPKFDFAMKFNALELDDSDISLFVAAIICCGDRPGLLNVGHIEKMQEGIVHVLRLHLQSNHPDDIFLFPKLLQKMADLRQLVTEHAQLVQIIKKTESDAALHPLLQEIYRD
The data set can be described thus: PPAR assay, PPARα. To be noted: for PPARα activation (competitive activation rate), compared with fenofibrate: sample final concentration 100 μM, positive control fenofibrate, FIGS. 5 and 6; for simultaneous activation of PPARα and PPARγ: summary of the PPARα and PPARγ assays, sample 100 μM.

For orientation: melting point means the temperature of the solid-liquid transition.

Take `Oc1ccc(-c2nc3ccccc3s2)cc1O` [Compound 14, 4-(benzo[d]thiazol-2-yl)benzene-1,2-diol]: the “scavenging effects on ROS generated by vascular endothelial cells, compared with trolox” value in data set [1] was “as high scavenging effects on ROS generated by vascular endothelial cells as trolox”.

With `COc1ccc(-c2nc3ccccc3s2)cc1OC` [Compound 20, 2-(3,4-dimethoxyphenyl)benzo[d]thiazole], the melting point lay within 135 to 137.2 °C. On PPAR gamma-LBD, the “PPARγ activation (competitive activation rate), compared with rosiglitazone” value (“PPARγ activation … compared with rosiglitazone” below) is “very excellent PPARγ activation agent compared to rosiglitazone”. For the same molecule, on PPAR alpha-LBD, the “PPARα activation (competitive activation rate), compared with fenofibrate” value (“PPARα activation … compared with fenofibrate” below) is listed as “very excellent PPARα activation agent compared to fenofibrate”; the “simultaneous activation of PPARα and PPARγ” value (“simultaneous activation” below) is “simultaneously activates PPARα and PPARγ”.

`COc1cc(-c2nc3ccccc3s2)cc(OC)c1OC` [Compound 24, 2-(3,4,5-trimethoxyphenyl)benzo[d]thiazole] displayed a melting point of 149.5 to 151.1 °C. In addition, at PPAR gamma-LBD, the “PPARγ activation … compared with rosiglitazone” value was “very excellent PPARγ activation agent compared to rosiglitazone”. Further, at PPAR alpha-LBD, the “PPARα activation … compared with fenofibrate” value is reported as “very excellent PPARα activation agent compared to fenofibrate”; the “simultaneous activation” value is “simultaneously activates PPARα and PPARγ”.

`COc1cc(-c2nc3ccccc3s2)cc(OC)c1O` [Compound 25, 4-(benzo[d]thiazol-2-yl)-2,6-dimethoxyphenol] yielded a melting point of 153.5 to 156.1 °C. Besides, the “PPARγ activation … compared with rosiglitazone” value at PPAR gamma-LBD is listed as “very excellent PPARγ activation agent compared to rosiglitazone”. On PPAR alpha-LBD, the “PPARα activation … compared with fenofibrate” value is recorded as “very excellent PPARα activation agent compared to fenofibrate”; the “simultaneous activation” value is “simultaneously activates PPARα and PPARγ”.

The molecule `Oc1ccc(-c2nc3cc(C(F)(F)F)ccc3s2)cc1` [Compound 28, 4-(5-(trifluoromethyl)benzo[d]thiazol-2-yl)phenol] registered a melting point of 187.2 to 188.9 °C. The “PPARγ activation … compared with rosiglitazone” value at PPAR gamma-LBD was “very excellent PPARγ activation agent compared to rosiglitazone”. For the same molecule, at PPAR alpha-LBD, the “PPARα activation … compared with fenofibrate” value was “very excellent PPARα activation agent compared to fenofibrate”; the “simultaneous activation” value was “simultaneously activates PPARα and PPARγ”.

Turning to `COc1cc(-c2nc3cc(C(F)(F)F)ccc3s2)ccc1O` [Compound 31, 2-methoxy-4-(5-(trifluoromethyl)benzo[d]thiazol-2-yl)phenol], the melting point fell in the range of 155.7 to 159.9 °C. The “PPARγ activation … compared with rosiglitazone” value on PPAR gamma-LBD was “very excellent PPARγ activation agent compared to rosiglitazone”. On PPAR alpha-LBD, the “PPARα activation … compared with fenofibrate” value is listed as “very excellent PPARα activation agent compared to fenofibrate”; the “simultaneous activation” value is “simultaneously activates PPARα and PPARγ”.

For `CCOc1cc(-c2nc3cc(C(F)(F)F)ccc3s2)ccc1O` [Compound 32, 2-ethoxy-4-(5-(trifluoromethyl)benzo[d]thiazol-2-yl)phenol], the melting point is 117 to 117.8 °C. Besides, the “PPARγ activation … compared with rosiglitazone” value on PPAR gamma-LBD was “very excellent PPARγ activation agent compared to rosiglitazone”. Moreover, at PPAR alpha-LBD, the “PPARα activation … compared with fenofibrate” value was “very excellent PPARα activation agent compared to fenofibrate”; the “simultaneous activation” value was “simultaneously activates PPARα and PPARγ”.

`COc1ccc(-c2nc3cc(C(F)(F)F)ccc3s2)cc1` [Compound 34, 2-(4-methoxyphenyl)-5-(trifluoromethyl)benzo[d]thiazole] gave a melting point of 128.8 to 130.1 °C. Besides, the “PPARγ activation … compared with rosiglitazone” value at PPAR gamma-LBD is “very excellent PPARγ activation agent compared to rosiglitazone”.

Molecule `COc1cc(-c2nc3cc(C(F)(F)F)ccc3s2)cc(OC)c1O` [Compound 40, 2,6-dimethoxy-4-(5-(trifluoromethyl)benzo[d]thiazol-2-yl)phenol] registered a melting point of 220.6 to 222.6 °C. Moreover, the “PPARγ activation … compared with rosiglitazone” value at PPAR gamma-LBD was “very excellent PPARγ activation agent compared to rosiglitazone”. Besides, on PPAR alpha-LBD, the “PPARα activation … compared with fenofibrate” value was “very excellent PPARα activation agent compared to fenofibrate”; the “simultaneous activation” value was “simultaneously activates PPARα and PPARγ”.

The molecule `O=C(O)c1ccc2[nH]c(-c3ccc(O)cc3O)nc2c1` [Compound 59, 2-(2,4-dihydroxyphenyl)-1H-benzo[d]imidazole-5-carboxylic acid] gave a melting point of more than 300 °C. The “PPARγ activation … compared with rosiglitazone” value on PPAR gamma-LBD is recorded as “very excellent PPARγ activation agent compared to rosiglitazone”. For the same molecule, at PPAR alpha-LBD, the “PPARα activation … compared with fenofibrate” value was “very excellent PPARα activation agent compared to fenofibrate”; the “simultaneous activation” value was “simultaneously activates PPARα and PPARγ”.

`COc1ccc(-c2nc3cc(C(=O)O)ccc3[nH]2)cc1` [Compound 63, 2-(4-methoxyphenyl)-1H-benzo[d]imidazole-5-carboxylic acid] came in with a melting point of 264.7 to 265.4 °C. Also, the “PPARγ activation … compared with rosiglitazone” value on PPAR gamma-LBD is on record as “very excellent PPARγ activation agent compared to rosiglitazone”. Moreover, on PPAR alpha-LBD, the “PPARα activation … compared with fenofibrate” value was “very excellent PPARα activation agent compared to fenofibrate”; the “simultaneous activation” value is “simultaneously activates PPARα and PPARγ”.

With `O=C(O)c1ccc2[nH]c(-c3cc(Br)c(O)c(Br)c3)nc2c1` [Compound 70, 2-(3,5-dibromo-4-hydroxyphenyl)-1H-benzo[d]imidazole-5-carboxylic acid], at PPAR gamma-LBD, the “PPARγ activation … compared with rosiglitazone” value was “very excellent PPARγ activation agent compared to rosiglitazone”. For the same molecule, on PPAR alpha-LBD, the “PPARα activation … compared with fenofibrate” value is “very excellent PPARα activation agent compared to fenofibrate”; the “simultaneous activation” value was “simultaneously activates PPARα and PPARγ”.

In turn, `CCOc1cc(-c2nc3cc(Cl)ccc3s2)ccc1O` [Compound 86, 4-(5-chlorobenzo[d]thiazol-2-yl)-2-ethoxyphenol] displayed a melting point of 102.1 to 103.4 °C. Also, the “PPARγ activation … compared with rosiglitazone” value at PPAR gamma-LBD is “very excellent PPARγ activation agent compared to rosiglitazone”. Besides, at PPAR alpha-LBD, the “PPARα activation … compared with fenofibrate” value is given as “very excellent PPARα activation agent compared to fenofibrate”; the “simultaneous activation” value was “simultaneously activates PPARα and PPARγ”.

As for `Oc1ccc(-c2nc3cc(Cl)ccc3s2)cc1Br` [Compound 95, 2-bromo-4-(5-chlorobenzo[d]thiazol-2-yl)phenol], the melting point lay in the range of 226 to 228.1 °C. In addition, the “PPARγ activation … compared with rosiglitazone” value on PPAR gamma-LBD is given as “very excellent PPARγ activation agent compared to rosiglitazone”. Moreover, at PPAR alpha-LBD, the “PPARα activation … compared with fenofibrate” value is given as “very excellent PPARα activation agent compared to fenofibrate”; the “simultaneous activation” value was “simultaneously activates PPARα and PPARγ”.

Turning to `CC(C)(Oc1ccc(-c2nc3ccccc3s2)cc1)C(=O)O` [Compound 97, 2-(4-(benzo[d]thiazol-2-yl)phenoxy)-2-methylpropanoic acid], on PPAR gamma-LBD, the “PPARγ activation … compared with rosiglitazone” value was “very excellent PPARγ activation agent compared to rosiglitazone”. Moreover, on PPAR alpha-LBD, the “PPARα activation … compared with fenofibrate” value was “very excellent PPARα activation agent compared to fenofibrate”; the “simultaneous activation” value is “simultaneously activates PPARα and PPARγ”.

As for `O=C(O)c1ccc2[nH]c(-c3ccc(OCc4ccccc4)cc3)nc2c1` [Compound 113, 2-(4-(benzyloxy)phenyl)-1H-benzo[d]imidazole-5-carboxylic acid], the “PPARγ activation … compared with rosiglitazone” value at PPAR gamma-LBD is given as “very excellent PPARγ activation agent compared to rosiglitazone”. Further, on PPAR alpha-LBD, the “PPARα activation … compared with fenofibrate” value is given as “very excellent PPARα activation agent compared to fenofibrate”; the “simultaneous activation” value was “simultaneously activates PPARα and PPARγ”.
